Tested on: CFTR-Y122X (GFP-CFTR-Y122X-Renilla construct) in Hek293 cell lines
Test: CFTR-Y122X assay (dual reporter readthrough, Renilla luminescence)
Assay type: cell-based
Conditions: Homo sapiens, compounds incubated 24 h, tested up to 100 μM; for AC50: nonsense mutation suppression in the CFTR-Y122X assay; for Emax: nonsense mutation suppression, 100% activity = 14 mM paromomycin, read-out: Amax
Excerpt: In particular, compounds of formula (I), (I′), (Ia), (Ia′) or (Ib) I act as nonsense mutation suppressors on frequent PTCs, e.g. on Y122X in the mRNA of the cystic fibrosis conductance regulator protein (CFTR). This can be determined in vitro, for example, using cell lines expressing GFP-CFTR-Y122X-Renilla constructs as described herein.
Activity of compounds of the present invention was examined in recombinant, dual reporter isogenic Hek293 cell lines (“CFTR-Y122X assay”). The engineered reporter constructs contained the 18 bp sequence strech corresponding to a common Y122X PTC mutation in CFTR class I mutant patients (see Sermet-Gaudelus, BMC Medicine, 2007, 5(5)). Instead of a tyrosine (Y) in position 122 of the CFTR protein a TGA stop codon interrupts the open reading frame (Y122X) of the corresponding mRNA. This TGA stop codon triplet (followed by the pyrimidine base cytosine) is permissive to aminoglycoside mediated translational readthrough which served as positive control for high throughput screening. A corresponding TAA stop codon variant and a wildtype non mutated construct was used for confirmation and counter screening. The CFTR sequence was sandwiched between an eGFP reporter, and a triple myc tag sequence fused to a full length Renilla reporter. All sequences, including an intron containing one positioned pre-eGFP (b-globin intron) were cloned in frame. The corresponding expression constructs were stably expressed in the isogenic HEK-R4 cell host (Invitrogen Incorp.) and selected by blasticidin resistance. The isogenic integration of the construct minimizes gene dose effects and improves assay reproducibility. Stably integrated single cell derived clones were selected and characterized for aminoglycoside mediated readthrough. […] Readthrough of Y122X accumulates an intracellular localized fusion protein approximately 65.5 kDa in size as controlled by western blot analysis and immunofluorescence using an anti-renilla antibody. The eGFP reporter pre-PTC mutation serves as visual control for genetic stability of the screening clones and minimizes protein degradation of small fusion protein amounts. In the assay, compound concentration was 10 μM. In miniaturized 1536 well format 2000 cells were dispensed in 4 μl/well and incubated for 24 h at 37° C., 5% CO2. 40 nl compounds were placed on the cells with control wells containing 1 ul Paramomycin and 14.4 mM final concentration. Compounds were incubated for 24 h. Renilla Glo substrate (2.5 ul) was added and plates were centrifuged and processed for luminescence measurement using various readers. Activity calculation was done using the equation: A1(%)=100*(S−NC)/(AC−NC) where AC, NC and S correspond to active controls (injection of Stimulation buffer=100% stimulation), neutral controls (buffer injection which Iloprost EC10) and screening samples (S). NC corresponds to 0% activity whereas AC is 100% activity (14 mM paromomycin). False positive artefacts were removed in confirmation and validation screening using the same assay format followed by counterscreening using the respective wildtype construct (w/o PTC mutation) cell model. Compounds were tested up to 100 μM compound concentration.

| Structure (SMILES) | AC50 | Emax |
| --- | --- | --- |
| Cn1c2ccccc2c(=O)c2c(=O)n(-c3ccccn3)c(C3CCC3)cc21 [Example 2.6, 3-cyclobutyl-5-methyl-2-(pyridin-2-yl)benzo[b][1,6]naphthyridine-1,10(2H,5H)-dione] | 3300 nM | 232% |
| Cc1csc2c(=O)c3c(=O)n(-c4ccccc4)c(C(C)C)cc3[nH]c12 [Example 1.20, 6-isopropyl-3-methyl-7-phenylthieno[3,2-b][1,6]naphthyridine-8,9(4H,7H)-dione] | 2500 nM | 183% |
| CC(C)c1cc2[nH]c3ccc(F)cc3c(=O)c2c(=O)n1-c1ccccc1 [Example 1.5, 8-fluoro-3-isopropyl-2-phenylbenzo[b][1,6]naphthyridine-1,10(2H,5H)-dione] | 1800 nM | 358% |
| CC(C)c1cc2c(c(=O)c3ccccc3n2C)c(=O)n1C1CCCC1 [Example 2.4, 2-cyclopentyl-3-isopropyl-5-methylbenzo[b][1,6]naphthyridine-1,10(2H,5H)-dione] | 1800 nM | 274% |
| CC(C)c1cc2c(c(=O)c3ccccc3n2C)c(=O)n1-c1ccccc1 [Example 1.4, 3-isopropyl-5-methyl-2-phenylbenzo[b][1,6]naphthyridine-1,10(2H,5H)-dione] | 3200 nM | 324% |
| Cc1cc2c(=O)c3c(=O)n(-c4ccccc4)c(C4CCC4)cc3[nH]c2s1 [Example 1.33, 7-cyclobutyl-2-methyl-6-phenylthieno[2,3-b][1,6]naphthyridine-4,5(6H,9H)-dione] | 19400 nM | 243% |
| Cc1cc2c(=O)c3c(=O)n(-c4ccccc4)c(C(C)C)cc3n(C)c2s1 [Example 1.15, 7-isopropyl-2,9-dimethyl-6-phenylthieno[2,3-b][1,6]naphthyridine-4,5(6H,9H)-dione] | 5500 nM | 224% |
| Cc1cc2c(=O)c3c(=O)n(-c4ccccc4)c(C4CCC4)cc3n(C)c2s1 [Example 1.31, 7-cyclobutyl-2,9-dimethyl-6-phenylthieno[2,3-b][1,6]naphthyridine-4,5(6H,9H)-dione] | 600 nM | 228% |
| Cc1[nH]c2cc(C3CCC3)n(-c3ccccc3)c(=O)c2c(=O)c1C [Example 1.27, 7-cyclobutyl-2,3-dimethyl-6-phenyl-1,6-naphthyridine-4,5(1H,6H)-dione] | 3000 nM | 206% |
| CC(C)c1cc2[nH]c3ccccc3c(=O)c2c(=O)n1-c1ccccn1 [Example 2.9, 3-isopropyl-2-(pyridin-2-yl)benzo[b][1,6]naphthyridine-1,10(2H,5H)-dione] | 4200 nM | 198% |
| Cn1c2c(c(=O)c3c(=O)n(-c4ccccc4)c(C4CCC4)cc31)CCC2 [Example 1.24, 3-cyclobutyl-5-methyl-2-phenyl-5,6,7,8-tetrahydro-1H-cyclopenta[b][1,6]naphthyridine-1,9(2H)-dione] | 18400 nM | 157% |
| CC(C)c1cc2c(c(=O)c3ccccc3n2C)c(=O)n1N1CCCC1 [Example 2.12, 3-isopropyl-5-methyl-2-(pyrrolidin-1-yl)benzo[b][1,6]naphthyridine-1,10(2H,5H)-dione] | 1700 nM | 178% |
| O=c1c2ccsc2[nH]c2cc(C3CCC3)n(-c3ccccc3)c(=O)c12 [Example 1.32, 7-cyclobutyl-6-phenylthieno[2,3-b][1,6]naphthyridine-4,5(6H,9H)-dione] | 4200 nM | 247% |
| COc1cccc2c(=O)c3c(=O)n(-c4ccccc4)c(C4CCC4)cc3[nH]c12 [Example 1.48, 3-cyclobutyl-6-methoxy-2-phenylbenzo[b][1,6]naphthyridine-1,10(2H,5H)-dione] | 1800 nM | 227% |
| Cn1c2ccsc2c(=O)c2c(=O)n(-c3ccccc3)c(C3CCC3)cc21 [Example 1.34, 6-cyclobutyl-4-methyl-7-phenylthieno[3,2-b][1,6]naphthyridine-8,9(4H,7H)-dione] | 1000 nM | 263% |
